In patent US20050033056A1, “Hydroxylated indole derivatives and uses thereof” (priority 2001, published 2005):

Columns and labels:
5-HT2 receptor = settings: background statement, see WO 98/43956 and EP 0 976 732 A1; cited from earlier work
CYP1A2 = biological target: T1, CYP1A2 (Homo sapiens, UniProt P05177); assay: CYP inhibition in HLM: R-warfarin 6-hydroxylation; type: in vitro ADME; settings: 10 or 50 μM
T1 construct: tissue Gentest Corp. (Woburn, Mass.); host or cells: pooled human liver microsomes
T1 sequence (P05177 1-516): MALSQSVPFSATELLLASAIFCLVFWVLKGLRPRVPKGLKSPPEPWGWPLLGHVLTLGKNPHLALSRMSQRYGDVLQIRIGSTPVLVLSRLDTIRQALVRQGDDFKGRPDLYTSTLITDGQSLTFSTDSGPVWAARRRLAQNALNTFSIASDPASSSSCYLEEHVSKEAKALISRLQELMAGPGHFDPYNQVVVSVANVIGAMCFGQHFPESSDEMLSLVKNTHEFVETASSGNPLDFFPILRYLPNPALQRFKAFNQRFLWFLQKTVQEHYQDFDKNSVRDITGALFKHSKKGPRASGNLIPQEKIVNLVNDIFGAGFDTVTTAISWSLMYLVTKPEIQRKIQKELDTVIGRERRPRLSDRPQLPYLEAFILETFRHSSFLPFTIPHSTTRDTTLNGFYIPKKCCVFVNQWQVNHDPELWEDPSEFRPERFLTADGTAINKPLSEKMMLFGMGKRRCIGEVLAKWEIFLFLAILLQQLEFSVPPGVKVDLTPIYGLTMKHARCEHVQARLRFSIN
Experimental: The incubations were carried out in test tubes (12.0×75 mm). The incubation mixtures (250 μL) contained 0.5 mg of HLM protein, 50 (CYP1A2 and CYP2E1) or 25 (CYP2C9, CYP2C19, CYP2D6 and CYP3A4) pmol of recombinant human CYPs, Compound 1 (10 or 50 μM), probe substrate (R—, S-warfarin, chlorzoxazone, S-mephenyloin, or bufuralol) at different concentrations, and 0.5 mg of NADPH in 50 mM Tris buffer containing 15 mM MgCl2 (pH 7.4). Compound 1 was added to the reaction mixture 5 minutes prior to the addition of the probe substrate. […]
The quantification was based on the calibration curves, and the quality control (QC) samples were applied to ensure the quality of the experiments. […]
1. CYP1A2/2C9/3A4-mediated warfarin 6-, 7-, 8-, and 10-hydroxylation (Zhang et al., Drug Metab. Dispos. 23:1339-1346, 1995; Rettie et al., Chem. Res. Toxicol. 5:54-59, 1992; Brian et al., Biochemistry 29:11280-11292, 1990): Hewlett Packard 1100 HPLC system (Waldbronn, Germany) comprised a binary pump, an autosampler, a column compartment unit, a photodiode array detector (PDA), and a fluorescence detector. […] The warfarin metabolites, 6-, 8-, and 10-hydroxywarfarin, were monitored by UV at 313 nm, and 7-hydroxywarfarin by fluorescence at Ex320 nm/Em380 nm. […]

SMILES: CNC(=O)Cc1ccc2ccn(C3CCN(CCc4ccccc4F)CC3)c2c1 [Compound 1, N-methyl-[1-[1-(2-fluorophenethyl)piperidine-4-yl]-1H-indol-6-yl] acetamide]
- IC50, binding to 5-HT2 receptor (5-HT2 receptor): low nanomolar
- inhibitory effect on CYP1A2 activity (in words) (CYP1A2): no inhibitory effect
